Experiments:
Format in all cases: in vivo
[1] = system: Beet Armyworm (Spodoptera exigua); assay: Bioassay on Beet Armyworm (BAW), 128-well diet tray assay; conditions: percent mortality of second instar larvae, 50 μg/cm^2 on artificial diet, five to seven days, 25° C., Table 3; for pest or weed control at 50 µg/cm2, 50 µg/cm2: Spodoptera exigua, 168 h, read-out: BAW Rating
Outline: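 Second-instar larvae (one to five per well) were placed on artificial diet surface-treated with 50 μg/cm^2 compound in acetone-water and held at 25 °C, 14:10 light-dark, for five to seven days. Percent mortality was averaged over eight wells.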

[2] = system: Corn Earworm (Helicoverpa zea); assay: Bioassay on Corn Earworm (CEW), 128-well diet tray assay; conditions: percent mortality of second instar larvae, 50 μg/cm^2 on artificial diet, five to seven days, 25° C., Table 3; for pest or weed control at 50 µg/cm2: Helicoverpa zea, 168 h, read-out: CEW Rating
Procedure: Certain molecules disclosed in this document were tested against BAW and CEW and CL using procedures described in the following examples. In the reporting of the results, the “BAW & CEW & CL Rating Table” was used (See Table Section).
Bioassays On CEW (Helicoverpa zea)
Bioassays on CEW were conducted using a 128-well diet tray assay. one to five second instar CEW larvae were placed in each well (3 mL) of the diet tray that had been previously filled with 1 mL of artificial diet to which 50 μg/cm^2 of the test compound (dissolved in 50 μL of 90:10 acetone-water mixture) had been applied (to each of eight wells) and then allowed to dry. Trays were covered with a clear self-adhesive cover, and held at 25° C., 14:10 light-dark for five to seven days. Percent mortality was recorded for the larvae in each well; activity in the eight wells was then averaged. The results are indicated in the table entitled “Table 3: Assay Results” (See Table Section).

[3] = system: Green Peach Aphid (Myzus persicae); assay: Bioassay on Green Peach Aphid (GPA), foliar spray on cabbage seedlings; conditions: 72 h, corrected % control (Abbott), 200 ppm spray on cabbage seedlings, three days, Table 3, read-out: GPA Rating
Procedure: Certain molecules disclosed in this document were tested against GPA using procedures described in the following example. In the reporting of the results, the “GPA Rating Table” was used (See Table Section). Cabbage seedlings grown in 3-inch pots, with 2-3 small (3-5 cm) true leaves, were used as test substrate. The seedlings were infested with 20-50 GPA (wingless adult and nymph stages) one day prior to chemical application. Four pots with individual seedlings were used for each treatment. Test compounds (2 mg) were dissolved in 2 mL of acetone/MeOH (1:1) solvent, forming stock solutions of 1000 ppm test compound. The stock solutions were diluted 5× with 0.025% Tween 20 in water to obtain the solution at 200 ppm test compound. A hand-held aspirator-type sprayer was used for spraying a solution to both sides of […] leaves until runoff. Reference plants (solvent check) were sprayed with the diluent only containing 20% by volume of acetone/MeOH (1:1) solvent. Treated plants were held in a holding room for three days at approximately 25° C. and ambient relative humidity (RH) prior to grading. Evaluation was conducted by counting the number of live aphids per plant under a microscope. Percent Control was measured by using Abbott's correction formula (W. S. Abbott, “A Method of Computing the Effectiveness of an Insecticide” J. Econ. Entomol. 18 (1925), pp. 265-267) as follows. Corrected % Control=100*(X−Y)/X • where • X=No. of live aphids on solvent check plants and • Y=No. of live aphids on treated plants The results are indicated in the table entitled “Table 3: Assay Results” (See Table Section).

Structure (SMILES)	pest or weed control at 50 µg/cm2, 50 µg/cm2 [1]	pest or weed control at 50 µg/cm2 [2]	BAW Rating [1]	other results
Cc1cc(/C=C/C(c2cc(Cl)cc(Cl)c2)C(F)(F)F)ccc1C(=O)NCc1cccnc1 (stereo not shown) [AC14]	50 to 100%	0 to 50%	–	–
Cc1cc(/C=C/C(c2cc(Cl)c(Cl)c(Cl)c2)C(F)(F)F)ccc1C(=O)NC1CS(=O)(=O)C1 (stereo not shown) [AC25]	50 to 100%	50 to 100%	–	–
Cc1cc(/C=C/C(c2cc(Cl)cc(Cl)c2)C(F)(F)F)ccc1C(=O)NC(C)c1ccc(Cl)nc1 (stereo not shown) [AC44]	50 to 100%	50 to 100%	–	pest or weed control at 200 ppm [3]: 0 to 80%
O=C(NCc1ccc(Cl)nc1)c1ccc(/C=C/C(c2cc(Cl)cc(Cl)c2)C(F)(F)F)cc1Br (stereo not shown) [AC46]	50 to 100%	50 to 100%	–	–
O=C(CNC(=O)c1ccc(/C=C/C(c2cc(Cl)cc(Cl)c2)C(F)(F)F)cc1Cl)NCC(F)(F)F (stereo not shown) [AC57]	50 to 100%	50 to 100%	–	pest or weed control at 200 ppm [3]: 0 to 80%
Cc1cc(/C=C/C(c2cc(Cl)cc(Cl)c2)C(F)(F)F)cnc1C(=O)NCc1ccc(Cl)nc1 (stereo not shown) [AC60]	50 to 100%	50 to 100%	–	pest or weed control at 200 ppm [3]: 0 to 80%
CCc1cc(/C=C/C(c2cc(Cl)c(F)c(Cl)c2)C(F)(F)F)ccc1C(=O)NCc1cccnc1Cl (stereo not shown) [AC76]	50 to 100%	50 to 100%	–	–
Cc1cc(/C=C/C(c2cc(Cl)cc(Cl)c2)C(F)(F)F)ccc1C(=O)N[C@H]1C[S@@+]([O-])C1 (stereo partly shown) [AC82]	50 to 100%	50 to 100%	–	pest or weed control at 200 ppm [3]: 0 to 80%
O=C(NC1CCN(CC(F)(F)F)CC1)c1ccc(/C=C/C(c2cc(Cl)c(Cl)c(Cl)c2)C(F)(F)F)cc1Br (stereo not shown) [AC105, (E)-2-Bromo-4-(4,4,4-trifluoro-3-(3,4,5-trichlorophenyl)but-1-en-1-yl)-N-(1-(2,2,2-trifluoroethyl)piperidin-4-yl)benzamide]	50 to 100%	50 to 100%	–	–
CN(C)NC(=O)CNC(=O)c1ccc(/C=C/C(c2cc(Cl)c(Cl)c(Cl)c2)C(F)(F)F)cc1Br (stereo not shown) [AC112]	50 to 100%	50 to 100%	–	–
CNC(=S)NC1CCc2cc(/C=C/C(c3cc(Cl)c(Cl)c(Cl)c3)C(F)(F)F)ccc21 (stereo not shown) [BC1, (E)-1-Methyl-3-(5-(4,4,4-trifluoro-3-(3,4,5-trichlorophenyl)-but-1-enyl)-2,3-dihydro-1H-inden-1-yl)thiourea]	50 to 100%	50 to 100%	–	–
CCNC(=S)NC1CCc2cc(/C=C/C(c3cc(Cl)c(Cl)c(Cl)c3)C(F)(F)F)ccc21 (stereo not shown) [BC2]	50 to 100%	50 to 100%	–	–
C=CCNC(=S)NC1CCc2cc(/C=C/C(c3cc(Cl)c(Cl)c(Cl)c3)C(F)(F)F)ccc21 (stereo not shown) [BC3]	50 to 100%	50 to 100%	–	–
O=C(CC(F)(F)F)NC1CCc2cc(/C=C/C(c3cc(Cl)c(Cl)c(Cl)c3)C(F)(F)F)ccc21 (stereo not shown) [BC4, (E)-3,3,3-Trifluoro-N-(5-(4,4,4-trifluoro-3-(3,4,5-trichlorophenyl)but-1-enyl)-2,3-dihydro-1H-inden-1-yl)propanamide]	50 to 100%	50 to 100%	–	pest or weed control at 200 ppm [3]: 0 to 80%
O=C(CC(F)(F)F)NCc1ccc(/C=C/C(c2cc(Cl)c(Cl)c(Cl)c2)C(F)(F)F)cc1Cl (stereo not shown) [CC10]	50 to 100%	50 to 100%	–	pest or weed control at 200 ppm [3]: 0 to 80%
O=C(NCc1ccc(/C=C/C(c2cc(Cl)c(Cl)c(Cl)c2)C(F)(F)F)cc1Cl)Oc1ccccc1Cl (stereo not shown) [CC40]	–	–	–	CEW Rating [2]: A (50-100)
FC(F)(F)C(/C=C/c1ccc(-n2cncn2)cc1)c1ccc(Cl)cc1Cl (stereo not shown) [DC13]	50 to 100%	50 to 100%	–	–
FC(F)(F)C(/C=C/c1ccc(-n2cncn2)cc1)c1cc(Cl)cc(Cl)c1Cl (stereo not shown) [DC17]	50 to 100%	50 to 100%	–	–
FC(F)(F)C(/C=C/c1ccc(-n2cncn2)cc1)c1cc(Cl)c(Cl)c(Cl)c1 (stereo not shown) [DC18]	50 to 100%	50 to 100%	–	–
FC(F)(F)c1cc(Cl)cc(C(/C=C/c2ccc(-n3cncn3)cc2)C(F)(F)F)c1 (stereo not shown) [DC19]	50 to 100%	50 to 100%	–	–

Structure (SMILES)	pest or weed control at 50 µg/cm2, 50 µg/cm2 [1]	pest or weed control at 50 µg/cm2 [2]	BAW Rating [1]	other results
N#Cc1cc(/C=C/C(c2cc(Cl)cc(Cl)c2)C(F)(F)F)ccc1-n1cncn1 (stereo not shown) [DC29]	50 to 100%	50 to 100%	–	–
N#Cc1cc(/C=C/C(c2cc(C(F)(F)F)cc(C(F)(F)F)c2)C(F)(F)F)ccc1-n1cncn1 (stereo not shown) [DC30]	50 to 100%	50 to 100%	–	–
N#Cc1cc(/C=C/C(c2cc(Cl)c(Cl)c(Cl)c2)C(F)(F)F)ccc1-n1cnc(N(C(=O)C2CC2)C(=O)C2CC2)n1 (stereo not shown) [DC42, (E)-N-(1-(2-Cyano-4-(4,4,4-trifluoro-3-(3,4,5-trichlorophenyl)but-1-en-1-yl)phenyl)-1H-1,2,4-triazol-3-yl)-N-(cyclopropanecarbonyl)cyclopropanecarboxamide]	–	–	A (50-100)	–
N#Cc1cc(/C=C/C(c2cc(Cl)c(Cl)c(Cl)c2)C(F)(F)F)ccc1-n1cnc(NC(=O)C2CC2)n1 (stereo not shown) [DC43, (E)-N-(1-(2-Cyano-4-(4,4,4-trifluoro-3-(3,4,5-trichlorophenyl)but-1-en-1-yl)phenyl)-1H-1,2,4-triazol-3-yl)cyclopropanecarboxamide]	–	–	A (50-100)	–
Cc1cc(/C=C/C(c2cc(Cl)cc(Cl)c2)C(F)(F)F)cc(C#N)c1-n1cncn1 (stereo not shown) [DC44]	–	–	A (50-100)	–
Cc1cc(/C=C/C(c2cc(Cl)c(Cl)c(Cl)c2)C(F)(F)F)cc(C#N)c1-n1cncn1 (stereo not shown) [DC45]	–	–	A (50-100)	–
N#Cc1cc(/C=C\C(c2cc(Cl)c(F)c(Cl)c2)C(F)(F)F)ccc1-n1cncn1 (stereo not shown) [DC46]	–	–	A (50-100)	–
FC(F)(F)C(/C=C/c1ccc(-n2cncn2)c(Br)c1)c1cc(Cl)cc(Cl)c1 (stereo not shown) [DC47]	–	–	A (50-100)	–
Fc1cc(/C=C/C(c2cc(Cl)cc(Cl)c2)C(F)(F)F)ccc1-n1cncn1 (stereo not shown) [DC48]	–	–	A (50-100)	–
FC(F)(F)C(/C=C/c1ccc(-n2cncn2)c(Cl)c1)c1cc(Cl)c(Cl)c(Cl)c1 (stereo not shown) [DC49]	–	–	A (50-100)	–
FC(F)(F)C(/C=C/c1ccc(-n2cncn2)c(Cl)c1)c1cc(Cl)cc(Cl)c1 (stereo not shown) [DC50]	–	–	A (50-100)	–
FC(F)(F)c1cc(/C=C/C(c2cc(Cl)cc(Cl)c2)C(F)(F)F)ccc1-n1cncn1 (stereo not shown) [DC51]	–	–	A (50-100)	–
CNc1cc(/C=C/C(c2cc(Cl)cc(Cl)c2)C(F)(F)F)ccc1-n1cncn1 (stereo not shown) [DC57, (E)-5-(3-(3,5-Dichlorophenyl)-4,4,4-trifluorobut-1-en-1-yl)-N-methyl-2-(1H-1,2,4-triazol-1-yl)aniline]	–	–	A (50-100)	–
CCOC(=O)c1cc(/C=C/C(c2cc(Cl)cc(Cl)c2)C(F)(F)F)ccc1-n1cncn1 (stereo not shown) [DC60]	–	–	A (50-100)	–
Cc1cc(/C=C/C(c2cc(Cl)cc(Cl)c2)C(F)(F)F)ccc1-n1cncn1 (stereo not shown) [DC62]	–	–	A (50-100)	–
Cc1cc(/C=C/C(c2cc(Cl)c(Cl)c(Cl)c2)C(F)(F)F)ccc1-n1cncn1 (stereo not shown) [DC63]	–	–	A (50-100)	–
FC(F)(F)C(/C=C/c1ccc(-n2cncn2)cc1Cl)c1cc(Cl)c(Cl)c(Cl)c1 (stereo not shown) [DC66]	–	–	A (50-100)	–
FC(F)(F)C(/C=C/c1ccc(-n2cncn2)cc1Cl)c1cc(Cl)cc(Cl)c1 (stereo not shown) [DC67]	–	–	A (50-100)	–
C/C(=C\C(c1cc(Cl)cc(Cl)c1)C(F)(F)F)c1ccc(-n2cncn2)cc1 (stereo not shown) [DC68, (E)-1-(4-(4-(3,5-Dichlorophenyl)-5,5,5-trifluoropent-2-en-2-yl)phenyl)-1H-1,2,4-triazole]	–	–	A (50-100)	–
COC(/C=C/c1ccc(-n2cncn2)cc1)(c1cc(Cl)cc(Cl)c1)C(F)(F)F (stereo not shown) [DC70, (E)-1-(4-(3-(3,5-Dichlorophenyl)-4,4,4-trifluoro-3-methoxybut-1-en-1-yl)phenyl)-1H-1,2,4-triazole]	–	–	A (50-100)	–
